Measurements reported in patent US4582827A, “Pesticidal diphenylaziridines” (priority 1983, dated 1986).

Tested on: tobacco hornworm (Manduca sexta) larvae
Test: Tobacco hornworm growth and developmental responses to feeding on diets containing the compounds
Type: in vivo
Settings: for Total No. of Adults: all tests began with 15 larvae; for mean number of eggs: 4 day old females
Experimental: The compounds produced and described in Example 1 were then tested for pesticidal activity against the tobacco hornworm (Manduca sexta). The screening procedure for these tests began with the larval stage and continued through the pupal and adult stages and finally evaluated egg production. The studies thus permitted the evaluation of the effects of the compounds over several subsequent developmental stages in the total life cycle of the insect, giving estimates of acute toxicity (insecticidalor larvicidal activity) as well as prolonged or delayed effects on development (growth regulation) and reproduction (chemosterilization). The latter are of special importance in conjunction with the integrated pest management approach to insect control.
The test compounds were incorporated into the artificial diet of tobacco hornworm larvae and their subsequent growth and developmental responses were monitored using the following parameters: larval mortality including determination of LD50 values, rate of larval development and weight gain, percent pupation, pupal weight and degree of deformities, percent adult emergence and measures of reproductive capacity such as the number of developed ooctyes, fecundity and fertility. The protocol for the screening tests has been developed over a number of years by Dahlman et al., Comp. Biochem. Physiol. 51A, 33, (1975); Comp. Biochem. Physiol., 52A, 105 (1975); Ent. Exp. et Appl., 22, 123 (1977); Palumbo and D. L. Dahlman, J. Econ. Entomol. 71, 674 (1978); D. L. Dahlman, Ent. Exp. et Appl., 24, 327 (1978).
Each treatment used 15 newly ecdysed fifth-instar larvae. Death of larvae within a few hours to several days of initial exposure was considered to be acute toxicity. However, the compounds may reduce the maximum size attained by larvae and/or may retard growth so that larvae require additional time to attain their maximum size. Developmental parameters subsequent to the feeding stage also may be affected. […] Mortality may occur in the pupal stage or emerging adults may have wrinkled wings or other deformities. The number of eggs produced by treated females may be reduced and/or unfertile. Although acute toxicity is desirable in the control of any insect, the delayed effects which result in poor survival and reduced reproductive capacity are significant factors in the long-range program of pest management systems.
Continuous cultures of M. sexta are maintained according to the procedures of Yamamoto, J. Econ. Entomol., 62, p. 1427 (1969). Ingredients of the diet formulation include sugar, casein, wheat germ oil, cholesterol, salt mixture, yeast, vitamins, antioxidants and fungal inhibitors, such as ascorbic acid, sorbic acid, formaldehyde and methyl-p-benzoate. All are incorporated into a liquid agar base which, when poured into holding pans, solidifies to form an adequate substrate upon which the insect larvae feed. Nearly any test material can be uniformly incorporated into such a diet. Thus, exposure to experimental compounds can be evaluated during all or any part of the larval stage. In addition, chronic or long-term effects in subsequent life stages can also be monitored.
The results from these studies, in which the 1,2-diphenylaziridines of Example 1 were incorporated singly into the diet of M. sexta at a concentration of 5 mM are presented in the following Table I.

## O=[N+]([O-])c1ccccc1C1CN1c1ccc(Cl)c(Cl)c1 (centres unmarked) [Compound 2]
5 mM in diet
  % Adult Emergence: 47%
  % Malformed Adults: 71%
  % Pupation: 93%
  Days to Max Wt: 6.2 ± .1 days
  Max Larval Wt: 8.58 ± .31 g
  Mean No. of Eggs: 83 ± 29
  No. of female Adults: 5
  pupal mortality: significant pupal mortality
  wrinkled or crumpled wings of moths: observed in significant numbers of moths
  Total No. of Adults: 7
Summary of Tables I and II
  pupal mortality: caused pupal mortality

## Clc1cccc(N2CC2c2ccccc2Cl)c1 (centres unmarked) [Compound 12]
5 mM in diet
  % Adult Emergence: 47%
  % Malformed Adults: 57%
  % Pupation: 60%
  Days to Max Wt: 7.6 ± .8 days
  Max Larval Wt: 5.96 ± .40 g
  Mean No. of Eggs: 8 ± 11
  No. of female Adults: 2
  feeding time required to attain reduced maximum weight: extended the feeding time
  larval mortality: significant larval mortality
  percent adult emergence: significantly lower than controls
  percent pupation: a reduction in percent pupation
  reduction in the maximum weight of hornworm larvae: 30-50%
  wrinkled or crumpled wings of moths: observed in significant numbers of moths
  mean number of eggs: significantly reduced the mean number of eggs
  Total No. of Adults: 7
Summary of Tables I and II
  effects on tobacco hornworm development: reduction in maximum larval weight, percent pupation, and mean number of eggs, and an increase in malformed adults

## CCc1ccc(N2CC2c2ccccc2Cl)cc1 (centres unmarked) [Compound 16]
5 mM in diet
  % Adult Emergence: 80%
  % Malformed Adults: 20%
  % Pupation: 87%
  Days to Max Wt: 5.5 ± .2 days
  Max Larval Wt: 7.48 ± .31 g
  Mean No. of Eggs: 44
  No. of female Adults: 4
  Total No. of Adults: 12

## Clc1ccccc1C1CN1c1ccccc1 (centres unmarked) [Compound 5]
5 mM in diet
  % Adult Emergence: 40%
  % Malformed Adults: 17%
  % Pupation: 40%
  Days to Max Wt: 7.3 ± 1.4 days
  Max Larval Wt: 5.42 ± .42 g
  Mean No. of Eggs: 14 ± 17
  No. of female Adults: 3
  feeding time required to attain reduced maximum weight: extended the feeding time
  larval mortality: significant larval mortality
  percent adult emergence: significantly lower than controls
  percent pupation: a reduction in percent pupation
  reduction in the maximum weight of hornworm larvae: 30-50%
  mean number of eggs: significantly reduced the mean number of eggs
  Total No. of Adults: 6
Summary of Tables I and II
  effects on tobacco hornworm development: reduction in maximum larval weight, percent pupation, and mean number of eggs, and an increase in malformed adults

## O=[N+]([O-])c1cccc(N2CC2c2ccccc2[N+](=O)[O-])c1 (centres unmarked) [Compound 3]
5 mM in diet
  % Adult Emergence: 80%
  % Malformed Adults: 8%
  % Pupation: 100%
  Days to Max Wt: 5.2 ± .1 days
  Max Larval Wt: 9.21 ± .24 g
  Mean No. of Eggs: 97 ± 14
  No. of female Adults: 9
  Total No. of Adults: 12
Summary of Tables I and II
  effects on tobacco hornworm development: had no effect

## Clc1ccc(C2CN2c2ccc(Br)cc2)cc1 (centres unmarked) [Compound 9]
5 mM in diet
  % Adult Emergence: 86%
  % Malformed Adults: 15%
  % Pupation: 93%
  Days to Max Wt: 5.0 ± .0 days
  Max Larval Wt: 6.46 ± .23 g
  Mean No. of Eggs: 74 ± 14
  No. of female Adults: 7
  reduction in the maximum weight of hornworm larvae: 30-50%
  Total No. of Adults: 13
